Paper PMC11110727, “Exploiting thiol-functionalized benzosiloxaboroles for achieving diverse substitution patterns – synthesis, characterization and biological evaluation of promising antibacterial agents” (RSC Medicinal Chemistry, 2024)
In brackets after ≈: the same amount, converted by molar mass.

Legend:
P. mirabilis ATCC 12453 = assay: Antibacterial activity: MIC/MBC, MIC with PAβN, disc-diffusion; type: cell-based, Proteus mirabilis; details: Proteus mirabilis, ATCC12453; P. mirabilis ATCC 12453; read-out: MIC
Protocol: (§1) Direct antimicrobial activity was determined against the following standard strains: (1) Gram-positive cocci: methicillin-sensitive Staphylococcus aureus ATCC 6538P (MSSA), methicillin-resistant S. aureus subsp. aureus ATCC 43300 (MRSA), S. epidermidis ATCC 12228, Enterococcus faecium ATCC 6057, E. faecalis ATCC 29212, Bacillus subtilis ATCC 6633; (2) Gram-negative bacteria from Enterobacteriales order: Klebsiella pneumoniae ATCC 13883, Escherichia coli ATCC 25922, Enterobacter cloacae DSM 6234, Proteus mirabilis ATCC 12453, Serratia marcescens ATCC 13880; (3) Gram-negative non-fermentative rods: Acinetobacter baumannii ATCC 19606, Pseudomonas aeruginosa ATCC 27853, Stenotrophomonas maltophilia ATCC 12714, S. maltophilia ATCC 13637, Burkholderia cepacia ATCC 25416, Bordetella bronchiseptica ATCC 4617; (4) yeasts: Candida albicans ATCC 90028, C. krusei ATCC 6258, C. parapsilosis ATCC 22019, C. tropicalis (Castellani) Berkhout ATCC 750, C. tropicalis IBA 171, C. guilliermondii IBA 155, and Saccharomyces cerevisiae ATCC 9763. Moreover, 5 clinical strains of methicillin-resistant S. aureus were also included: NMI 664 K, NMI 1576 K, NMI 1712 K, NMI 1991 K, and NMI 2541 K. All strains were stored at −80 °C. Prior to testing, each bacterial strain was subcultured twice on tryptic soy agar TSA (bioMerieux) medium and yeast strains on Sabouraud dextrose agar (bioMerieux) for 24–48 h at 30 °C to ensure viability. The antimicrobial activity was evaluated as previously described[26] by the disc-diffusion method and the MIC determination assays according to the EUCAST (ref. [71] and [72]) and CLSI (ref. [53] and [73]) recommendations. Assessment of bactericidal (MBC) and fungicidal (MFC) activities was performed according to the CLSI recommendations.[54,74] […] The new benzosiloxaboroles were dissolved in DMSO (Sigma).
(§2) Considering that the MDR efflux pumps often contribute to Gram-negative rod resistance, the MIC values of studied agents, with or without the pump inhibitor, PAβN (20 μg mL^−1) (Sigma), were determined.[75] The MIC was determined using Mueller–Hinton II broth medium (MHB) (Becton Dickinson) by the broth microdilution method, according to the CLSI guideliness.[53] To minimize the influence of PAβN on the destabilization of bacterial cell covers, the tests were conducted in the presence of 1 mM MgSO4 (Sigma).[76] At least a 4-fold reduction in the MIC value after the addition of PAβN was considered significant.[56,77]

[1] = system: S. epidermidis ATCC 12228; assay: Antibacterial activity: MIC/MBC determination and disc-diffusion; type: cell-based; details: Staphylococcus epidermidis, ATCC12228, S. epidermidis ATCC 12228; for MIC: read-out: MIC
Outline: (§3)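 Yeasts are grown twice on Sabouraud dextrose agar and bacteria twice on tryptic soy agar (30 °C, 24–48 h). MIC and disc-diffusion testing follow EUCAST/CLSI, and fungicidal or bactericidal activity follows CLSI. Compounds are dissolved in DMSO.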

E. faecalis ATCC 29212 = assay: as above; type: cell-based; details: Enterococcus faecalis, ATCC29212, E. faecalis ATCC 29212; for MIC: read-out: MIC
Outline: as §3

A. baumannii ATCC 19606 = assay: Antibacterial activity: MIC/MBC, MIC with PAβN, disc-diffusion; type: cell-based, Acinetobacter baumannii; details: A. baumannii ATCC 19606; for MIC: Acinetobacter baumannii, ATCC19606, read-out: MIC
Protocol: as §1, §2

P. aeruginosa ATCC 27853 = assay: as above; type: cell-based; details: Pseudomonas aeruginosa, ATCC27853; P. aeruginosa ATCC 27853; read-out: MIC
Protocol: as §1, §2

S. marcescens ATCC 13880 = assay: as above; type: cell-based, Serratia marcescens; details: Serratia marcescens, ATCC13880; S. marcescens ATCC 13880; read-out: MIC
Protocol: as §1, §2

C. tropicalis IBA 171 = assay: Antifungal activity: MIC/MFC, disc-diffusion; type: cell-based; details: Candida tropicalis, IBA171; read-out: MIC
Protocol: (§4) Direct antimicrobial activity was determined against the following standard strains: (1) Gram-positive cocci: methicillin-sensitive Staphylococcus aureus ATCC 6538P (MSSA), methicillin-resistant S. aureus subsp. aureus ATCC 43300 (MRSA), S. epidermidis ATCC 12228, Enterococcus faecium ATCC 6057, E. faecalis ATCC 29212, Bacillus subtilis ATCC 6633; (2) Gram-negative bacteria from Enterobacteriales order: Klebsiella pneumoniae ATCC 13883, Escherichia coli ATCC 25922, Enterobacter cloacae DSM 6234, Proteus mirabilis ATCC 12453, Serratia marcescens ATCC 13880; (3) Gram-negative non-fermentative rods: Acinetobacter baumannii ATCC 19606, Pseudomonas aeruginosa ATCC 27853, Stenotrophomonas maltophilia ATCC 12714, S. maltophilia ATCC 13637, Burkholderia cepacia ATCC 25416, Bordetella bronchiseptica ATCC 4617; (4) yeasts: Candida albicans ATCC 90028, C. krusei ATCC 6258, C. parapsilosis ATCC 22019, C. tropicalis (Castellani) Berkhout ATCC 750, C. tropicalis IBA 171, C. guilliermondii IBA 155, and Saccharomyces cerevisiae ATCC 9763. Moreover, 5 clinical strains of methicillin-resistant S. aureus were also included: NMI 664 K, NMI 1576 K, NMI 1712 K, NMI 1991 K, and NMI 2541 K. All strains were stored at −80 °C. Prior to testing, each bacterial strain was subcultured twice on tryptic soy agar TSA (bioMerieux) medium and yeast strains on Sabouraud dextrose agar (bioMerieux) for 24–48 h at 30 °C to ensure viability. The antimicrobial activity was evaluated as previously described[26] by the disc-diffusion method and the MIC determination assays according to the EUCAST (ref. [71] and [72]) and CLSI (ref. [53] and [73]) recommendations. Assessment of bactericidal (MBC) and fungicidal (MFC) activities was performed according to the CLSI recommendations.[54,74] The following reference agents were used: fluconazole (in the case of fungi), linezolid (for Gram-positive bacteria), and nitrofurantoin (for Gram-negative rods). The new benzosiloxaboroles were dissolved in DMSO (Sigma).

[2] = system: C. guilliermondii IBA 155; assay: Antifungal activity: MIC/MFC, disc-diffusion; type: cell-based; details: for MIC: Meyerozyma guilliermondii, IBA155, read-out: MIC
Protocol: as §4

[3] = system: C. parapsilosis ATCC 22019; assay: Antifungal activity: MIC/MFC, disc-diffusion; type: cell-based; details: Lodderomyces parapsilosis, ATCC22019; read-out: MIC
Protocol: as §4

C. tropicalis ATCC 750 = assay: Antifungal activity: MIC/MFC, disc-diffusion; type: cell-based; details: Candida tropicalis, ATCC750; read-out: MIC
Protocol: as §4

Compound	MIC (P. mirabilis ATCC 12453)	MBC [1]	MIC [1]	MBC (E. faecalis ATCC 29212)	MIC (E. faecalis ATCC 29212)	MIC (A. baumannii ATCC 19606)	MIC (P. aeruginosa ATCC 27853)	MIC (S. marcescens ATCC 13880)	MIC (C. tropicalis IBA 171)	MIC [2]	MIC [3]	MIC (C. tropicalis ATCC 750)	-fold reduction of MIC in the presence of PAβN (A. baumannii ATCC 19606; PAβN 20 μg mL^−1, MHB + 1 mM MgSO4)	diameter of inhibition zone ([2]; C. guilliermondii IBA 155, (-) = zone not observed, paper discs 9 mm)
C[Si]1(C)OB(O)c2cc(F)c(S)c(F)c21 [Compound 1e, 5,7-Difluoro-6-mercapto-1,1-dimethylbenzo[c][1,2,5]oxasilaborol-3(1H)-ol]	> 400 µg/mL	50 µg/mL (≈ 203 µM)	1.56 µg/mL (≈ 6.34 µM)	100 µg/mL (≈ 406 µM)	12.5 µg/mL (≈ 50.8 µM)	> 400 µg/mL	> 400 µg/mL	> 400 µg/mL	200 µg/mL (≈ 813 µM)	> 400 µg/mL	400 µg/mL (≈ 1630 µM)	400 µg/mL (≈ 1630 µM)	–	–
C[Si]1(C)OB(O)c2ccc(S)c(F)c21 [Compound 2e, 7-Fluoro-6-mercapto-1,1-dimethylbenzo[c][1,2,5]oxasilaborol-3(1H)-ol]	> 100 µg/mL	25 µg/mL (≈ 110 µM)	6.25 µg/mL (≈ 27.4 µM)	–	12.5 µg/mL (≈ 54.8 µM)	> 100 µg/mL	> 100 µg/mL	> 100 µg/mL	> 100 µg/mL	> 100 µg/mL	> 100 µg/mL	> 100 µg/mL	–	–
CC(=O)CCSc1c(F)cc2c(c1F)[Si](C)(C)OB2O [Compound 3, 4-((5,7-Difluoro-3-hydroxy-1,1-dimethyl-1,3-dihydrobenzo[c][1,2,5]oxasilaborol-6-yl)thio)butan-2-one]	> 400 µg/mL	200 µg/mL (≈ 632 µM)	25 µg/mL (≈ 79.1 µM)	200 µg/mL (≈ 632 µM)	25 µg/mL (≈ 79.1 µM)	> 400 µg/mL	> 400 µg/mL	> 400 µg/mL	400 µg/mL (≈ 1260 µM)	200 µg/mL (≈ 632 µM)	100 µg/mL (≈ 316 µM)	> 400 µg/mL	–	–
COC(=O)CCSc1ccc2c(c1F)[Si](C)(C)OB2O [Compound 4, Methyl 3-((7-fluoro-3-hydroxy-1,1-dimethyl-1,3-dihydrobenzo[c][1,2,5]oxasilaborol-6-yl)thio)propanoate]	> 400 µg/mL	–	25 µg/mL (≈ 79.6 µM)	–	200 µg/mL (≈ 636 µM)	> 400 µg/mL	> 400 µg/mL	> 400 µg/mL	> 400 µg/mL	400 µg/mL (≈ 1270 µM)	400 µg/mL (≈ 1270 µM)	> 400 µg/mL	2 -fold	12 mm
C[Si]1(C)OB(O)c2cc(F)c(SCCC(=O)ON3C(=O)CCC3=O)c(F)c21 [Compound 5, 2,5-Dioxopyrrolidin-1-yl 3-((5,7-difluoro-3-hydroxy-1,1-dimethyl-1,3-dihydrobenzo-[c][1,2,5]oxasilaborol-6-yl)thio)propanoate]	> 400 µg/mL	–	400 µg/mL (≈ 963 µM)	–	400 µg/mL (≈ 963 µM)	> 400 µg/mL	> 400 µg/mL	> 400 µg/mL	> 400 µg/mL	> 400 µg/mL	> 400 µg/mL	> 400 µg/mL	–	–
C[Si]1(C)OB(O)c2cc(F)c(SCCC#N)c(F)c21 [Compound 6, 3-((5,7-Difluoro-3-hydroxy-1,1-dimethyl-1,3-dihydrobenzo[c][1,2,5]oxasilaborol-6-yl)thio)propanenitrile]	> 400 µg/mL	–	50 µg/mL (≈ 167 µM)	–	400 µg/mL (≈ 1340 µM)	> 400 µg/mL	> 400 µg/mL	> 400 µg/mL	> 400 µg/mL	> 400 µg/mL	> 400 µg/mL	> 400 µg/mL	–	–
C[Si]1(C)OB(O)c2cc(F)c(SCCC(N)=O)c(F)c21 [Compound 7, 3-((5,7-Difluoro-3-hydroxy-1,1-dimethyl-1,3-dihydrobenzo[c][1,2,5]oxasilaborol-6-yl)thio)propanamide]	> 400 µg/mL	–	100 µg/mL (≈ 315 µM)	–	400 µg/mL (≈ 1260 µM)	> 400 µg/mL	> 400 µg/mL	> 400 µg/mL	> 400 µg/mL	> 400 µg/mL	> 400 µg/mL	> 400 µg/mL	–	–
C[Si]1(C)OB(O)c2cc(F)c(SCCC(=O)N3CCOCC3)c(F)c21 [Compound 8, 3-((5,7-Difluoro-3-hydroxy-1,1-dimethyl-1,3-dihydrobenzo[c][1,2,5]oxasilaborol-6-yl)thio)-1-morpholinopropan-1-one]	> 400 µg/mL	–	100 µg/mL (≈ 258 µM)	–	400 µg/mL (≈ 1030 µM)	> 400 µg/mL	> 400 µg/mL	> 400 µg/mL	> 400 µg/mL	> 400 µg/mL	> 400 µg/mL	> 400 µg/mL	–	–
C[Si]1(C)OB(O)c2cc(F)c(SCCC(=O)Nc3ncccn3)c(F)c21 [Compound 9, 3-((5,7-Difluoro-3-hydroxy-1,1-dimethyl-1,3-dihydrobenzo[c][1,2,5]oxasilaborol-6-yl)thio)-N-(pyrimidin-2-yl)propanamide]	> 400 µg/mL	400 µg/mL (≈ 1010 µM)	50 µg/mL (≈ 126 µM)	–	200 µg/mL (≈ 506 µM)	> 400 µg/mL	> 400 µg/mL	> 400 µg/mL	> 400 µg/mL	> 400 µg/mL	> 400 µg/mL	> 400 µg/mL	–	–
C[Si]1(C)OB(O)c2cc(F)c(S(=O)(=O)N3CCOCC3)c(F)c21 [Compound 29, 5,7-Difluoro-1,1-dimethyl-6-(morpholinosulfonyl)benzo[c][1,2,5]oxasilaborol-3(1H)-ol]	> 400 µg/mL	–	400 µg/mL (≈ 1100 µM)	–	> 400 µg/mL	> 400 µg/mL	> 400 µg/mL	> 400 µg/mL	–	–	–	–	–	–
